Counter-ions that a name gives are not always drawn.
Molecular target: T1, human NOX4 (Homo sapiens, UniProt Q9NPH5)
T1 construct: expressed in transfected cells; membrane fraction used
T1 sequence (Q9NPH5 1-578): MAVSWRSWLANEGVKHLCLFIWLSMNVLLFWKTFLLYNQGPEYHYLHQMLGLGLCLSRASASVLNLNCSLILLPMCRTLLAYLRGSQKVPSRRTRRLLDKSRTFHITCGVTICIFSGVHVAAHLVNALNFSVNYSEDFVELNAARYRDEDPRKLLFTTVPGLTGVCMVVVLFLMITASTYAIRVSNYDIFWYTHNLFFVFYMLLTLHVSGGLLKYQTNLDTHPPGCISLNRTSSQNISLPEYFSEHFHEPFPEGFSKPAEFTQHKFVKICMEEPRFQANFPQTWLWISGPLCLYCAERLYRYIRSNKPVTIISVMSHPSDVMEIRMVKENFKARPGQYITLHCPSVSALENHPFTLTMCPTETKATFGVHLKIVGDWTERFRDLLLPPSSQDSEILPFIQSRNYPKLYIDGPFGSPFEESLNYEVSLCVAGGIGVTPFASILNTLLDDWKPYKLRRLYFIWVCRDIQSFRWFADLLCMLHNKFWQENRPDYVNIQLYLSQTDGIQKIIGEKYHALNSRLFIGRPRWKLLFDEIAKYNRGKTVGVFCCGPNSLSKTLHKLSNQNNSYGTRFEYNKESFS
T1 sequence (P13498 1-195 partner): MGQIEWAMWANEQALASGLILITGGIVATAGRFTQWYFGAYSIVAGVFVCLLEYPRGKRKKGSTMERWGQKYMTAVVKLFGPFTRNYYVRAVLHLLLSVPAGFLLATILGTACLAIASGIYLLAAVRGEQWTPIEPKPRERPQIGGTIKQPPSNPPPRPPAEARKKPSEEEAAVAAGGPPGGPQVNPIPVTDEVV
Test: Cell free membrane based in vitro NOX4 assay: H2O2 production by membranes expressing human NOX4, measured with Amplex Red
Assay type: biochemical
Conditions: for inhibition at 1 µM: 1.0 μM compound, read-out: Percentage inhibition at 1.0 μM; for inhibition at 10 µM: 10.0 μM compound, read-out: Percentage inhibition at 10.0 μM; for IC50: class symbols
Description: The inhibition of NOX4 activity was measured as inhibition of formation of reactive oxygen species (ROS) from oxygen in cell free assays. […] A cell free membrane based in vitro assay was developed by preparing membranes from cells stably overexpressing human NOX4. hNOX4/HEK stable cell line was generated in-house for this purpose. Membranes from stably transfected cells overexpressing human NOX4 were prepared by homogenizing the cells in buffer (20 mM HEPES, 1 mM EGTA, 0.5 mM DTT, 0.5% protease inhibitor cocktail, 1 mM PMSF, pH 7.6), followed by centrifugation at 160000 g for 30 min. Membrane fraction (pellet) was resuspended in storage buffer (homogenization buffer with 10% glycerol and 100 mM NaCl) and stored at −80° C. Protein concentration was determined by Bradford reagent. H202 production by membranes expressing human NOX4 was measured using Amplex Red (Invitrogen) by following a slightly modified version of the manufacturer's instruction manual. Briefly, membranes were incubated in assay buffer (25 mM HEPES, 0.12 M NaCl, 3 mM KCl, 1 mM MgCl2, pH 7.4) with Horse Radish Peroxidase (HRP) and Amplex Red. Reaction was started by addition of […] to the membrane mix. Antagonism of NOX4 inhibitors was measured by incubating the membrane with increasing concentrations of the inhibitors for 20 min on a plate shaker prior to addition of NADPH. H2O2 levels were measured for 10 min in a BMG Fluostar microplate reader with excitation and emission wavelengths of 544 nm and 590 nm respectively. Concentration response curves were plotted as a % of maximal response obtained in the absence of the inhibitor. IC50 value was calculated from concentration response curve by nonlinear regression analysis using GraphPad PRISM software.

inhibition at 1 µM [%] | inhibition at 10 µM [%] | IC50 [nM] | Compound
89.7 | 64.5 | 50 to 100 | CCn1nc(C)c2c(=O)c(O)c(-c3ccccc3Cl)[nH]c21 [Example 26, 6-(2-Chlorophenyl)-1-ethyl-5-hydroxy-3-methyl-1,7-dihydro-4H-pyrazolo[3,4-b]pyridin-4-one]
98.2 | 100 | 100 to 150 | Cc1nn(CC(F)(F)F)c2[nH]c(-c3ccccc3Cl)c(O)c(=O)c12 [Example 27, 6-(2-Chlorophenyl)-5-hydroxy-3-methyl-1-(2,2,2-trifluoroethyl)-1,7-dihydro-4H-pyrazolo[3,4-b]pyridin-4-one]
82.1 | 58.9 | 100 to 150 | Cc1nn(C(C)C)c2[nH]c(-c3ccccc3Cl)c(O)c(=O)c12 [Example 28, 6-(2-Chlorophenyl)-5-hydroxy-3-methyl-1-(propan-2-yl)-1,7-dihydro-4H-pyrazolo[3,4-b]pyridin-4-one]
89.4 | 95.6 | 100 to 150 | COc1ccc(-n2nc(C)c3c(=O)c(O)c(-c4c(F)cccc4F)[nH]c32)cc1 [Example 29, 6-(2,6-Difluorophenyl)-5-hydroxy-1-(4-methoxyphenyl)-3-methyl-1,7-dihydro-4H-pyrazolo[3,4-b]pyridin-4-one]
64.1 | 77.3 | > 150 | Cc1nn(-c2ccccn2)c2[nH]c(-c3ccccc3Cl)c(O)c(=O)c12 [Example 30, 6-(2-Chlorophenyl)-5-hydroxy-3-methyl-1-(pyridin-2-yl)-1,7-dihydro-4H-pyrazolo[3,4-b]pyridin-4-one]
100 | 100 | < 50 | Cc1nn(-c2ccc(F)c(F)c2)c2[nH]c(-c3ccccc3Cl)c(O)c(=O)c12 [Example 31, 6-(2-Chlorophenyl)-1-(3,4-difluorophenyl)-5-hydroxy-3-methyl-1,7-dihydro-4H-pyrazolo[3,4-b]pyridin-4-one]
100 | 100 | < 50 | Cc1nn(-c2ccc(F)cc2)c2[nH]c(-c3c(F)cccc3F)c(O)c(=O)c12 [Example 32, 6-(2,6-Difluorophenyl)-1-(4-fluorophenyl)-5-hydroxy-3-methyl-1,7-dihydro-4H-pyrazolo[3,4-b]pyridin-4-one]
100 | 100 | < 50 | Cc1nn(-c2ccc(F)cc2)c2[nH]c(-c3ccccc3Cl)c(O)c(=O)c12 [Example 33, 6-(2-Chlorophenyl)-1-(4-fluorophenyl)-5-hydroxy-3-methyl-1,7-dihydro-4H-pyrazolo[3,4-b]pyridin-4-one]
100 | 100 | < 50 | Cc1nn(-c2cccc(F)c2)c2[nH]c(-c3ccccc3Cl)c(O)c(=O)c12 [Example 34, 6-(2-Chlorophenyl)-1-(3-fluorophenyl)-5-hydroxy-3-methyl-1,7-dihydro-4H-pyrazolo[3,4-b]pyridin-4-one]
100 | 100 | < 50 | Cc1nn(-c2cccc(F)c2)c2[nH]c(-c3c(F)cccc3F)c(O)c(=O)c12 [Example 35, 6-(2,6-Difluorophenyl)-1-(3-fluorophenyl)-5-hydroxy-3-methyl-1,7-dihydro-4H-pyrazolo[3,4-b]pyridin-4-one]
84.2 | 100 | > 150 | Cc1nn(-c2ccccn2)c2[nH]c(-c3c(F)cccc3F)c(O)c(=O)c12 [Example 36, 6-(2,6-Difluorophenyl)-5-hydroxy-3-methyl-1-(pyridin-2-yl)-1,7-dihydro-4H-pyrazolo[3,4-b]pyridin-4-one]
100 | 100 | 50 to 100 | Cc1nn(-c2ccc(F)c(F)c2)c2[nH]c(-c3c(F)cccc3F)c(O)c(=O)c12 [Example 37, 6-(2,6-Difluorophenyl)-1-(3,4-difluorophenyl)-5-hydroxy-3-methyl-1,7-dihydro-4H-pyrazolo[3,4-b]pyridin-4-one]
87.5 | 86.1 | 100 to 150 | COc1ccc(-c2[nH]c3c(c(C)nn3-c3ccc(F)cc3)c(=O)c2O)c(F)c1 [Example 38, 6-(2-Fluoro-4-methoxyphenyl)-1-(4-fluorophenyl)-5-hydroxy-3-methyl-1,7-dihydro-4H-pyrazolo[3,4-b]pyridin-4-one]
85 | 87.3 | 100 to 150 | COc1ccc(-c2[nH]c3c(c(C)nn3-c3ccc(F)c(F)c3)c(=O)c2O)c(F)c1 [Example 39, 1-(3,4-Difluorophenyl)-6-(2-fluoro-4-methoxyphenyl)-5-hydroxy-3-methyl-1,7-dihydro-4H-pyrazolo[3,4-b]pyridin-4-one]
93.3 | 100 | < 50 | Cn1nc(C(F)(F)F)c2c(=O)c(O)c(-c3ccccc3Cl)[nH]c21 [Example 40, 6-(2-Chlorophenyl)-5-hydroxy-1-methyl-3-(trifluoromethyl)-1,7-dihydro-4H-pyrazolo[3,4-b]pyridin-4-one]
77.7 | 87.6 | > 150 | Cn1nc(C(F)(F)F)c2c(=O)c(O)c(-c3ccccc3F)[nH]c21 [Example 41, 6-(2-Fluorophenyl)-5-hydroxy-1-methyl-3-(trifluoromethyl)-1,7-dihydro-4H-pyrazolo[3,4-b]pyridin-4-one]
86.8 | 96.5 | 100 to 150 | Cn1nc(C(F)(F)F)c2c(=O)c(O)c(-c3ccc(F)cc3)[nH]c21 [Example 42, 6-(4-Fluorophenyl)-5-hydroxy-1-methyl-3-(trifluoromethyl)-1,7-dihydro-4H-pyrazolo[3,4-b]pyridin-4-one]
90.6 | 97.9 | 100 to 150 | Cn1nc(C(F)(F)F)c2c(=O)c(O)c(-c3ccc(Cl)cc3)[nH]c21 [Example 43, 6-(4-Chlorophenyl)-5-hydroxy-1-methyl-3-(trifluoromethyl)-1,7-dihydro-4H-pyrazolo[3,4-b]pyridin-4-one]
84.6 | 100 | > 150 | Cn1nc(C(F)(F)F)c2c(=O)c(O)c(-c3ccc(F)cc3Cl)[nH]c21 [Example 44, 6-(2-Chloro-4-fluorophenyl)-5-hydroxy-1-methyl-3-(trifluoromethyl)-1,7-dihydro-4H pyrazolo[3,4-b]pyridin-4-one]
89.1 | 98.6 | 100 to 150 | Cn1nc(C(F)(F)F)c2c(=O)c(O)c(-c3c(F)cccc3Cl)[nH]c21 [Example 45, 6-(2-Chloro-6-fluorophenyl)-5-hydroxy-1-methyl-3-(trifluoromethyl)-1,7-dihydro-4H-pyrazolo[3,4-b]pyridin-4-one]
73.6 | 100 | 100 to 150 | Cn1nc(C(F)(F)F)c2c(=O)c(O)c(-c3ccncc3Cl)[nH]c21 [Example 46, 6-(3-Chloropyridin-4-yl)-5-hydroxy-1-methyl-3-(trifluoromethyl)-1,7-dihydro-4H-pyrazolo[3,4-b]pyridin-4-one hydrochloride]
100 | 100 | 50 to 100 | COc1ccc(-c2[nH]c3c(c(C(F)(F)F)nn3C)c(=O)c2O)c(F)c1 [Example 47, 6-(2-Fluoro-4-methoxyphenyl)-5-hydroxy-1-methyl-3-(trifluoromethyl)-1,7-dihydro-4H-pyrazolo[3,4-b]pyridin-4-one]
84.2 | 98.3 | 100 to 150 | COc1ccc(-c2[nH]c3c(c(C(F)(F)F)nn3C)c(=O)c2O)c(Cl)c1 [Example 48, 6-(2-Chloro-4-methoxyphenyl)-5-hydroxy-1-methyl-3-(trifluoromethyl)-1,7-dihydro-4H-pyrazolo[3,4-b]pyridin-4-one]

Reference: patent US20200247800A1, “SUBSTITUTED BICYCLIC HETEROCYCLIC COMPOUNDS AS NADPH OXIDASE INHIBITORS” (Glenmark Pharmaceuticals S.A., priority 2017, published 2020)
